Laboratory results reported in PMC10590056, “Design and synthesis of cabotegravir derivatives bearing 1,2,3-triazole and evaluation of anti-liver cancer activity” (Frontiers in Pharmacology, 2023).
Values joined by “and” are separate entries in the source; they are usually repeats but may differ in a detail not shown here. Identical values can stand only once. Like-named read-outs stand apart in the source and are kept apart here.

Columns and labels:
HepG2 cells [1] = test: MTT assay for cell proliferation and cytotoxicity, HepG2; type: cell-based; set-up: key to Inhibitory rate: inhibition rate = 1 - mean A490 sample/mean A490 control (fraction); conditions: for IC50: HepG2, 48 h, MTT; for Inhibitory rate / ODtreated/ODcontrol: HepG2, fraction, per experiment; for Inhibition rate (16μM), 48 h, HepG2: preliminary screening, HepG2, 16 μM, mean±SD, unit not given
Procedure: (§1) HepG2, HeLa, MCF-7, and KYSE-30 cells were grown in a humidified incubator at 37°C with 5% CO2 in DMEM supplemented with 10% fetal bovine serum (FBS), […] streptomycin, and 100 U/mL penicillin.
(§2) When HepG2 cells reached 80% confluence, they were treated with 1 mL of trypsin and resuspended at a density of 10^5 cells/mL. Then, 100 μL of cell suspension was seeded into each well of a 96-well plate and incubated in a humidified atmosphere. The different concentrations of KJ-5 and KJ-12 (0, 1, 2, 4, 8, 16, and 32 μM) were added to each well, and the cells were further incubated for 48 h. Afterward, 20 μL of the MTT solution (5 mg/mL) was added to each well, and incubation was continued for another 4 h. The supernatant was discarded, and 200 μL of the DMSO solution was added to each well. The plate was shaken for 10 min in the dark. The absorbance values were measured at 490 nm using an enzyme-linked detector. The cell inhibition rate (%) was calculated using the following formula: (1-Mean A490 sample/Mean A490 control) × 100%.

MCF-7 cells = test: MTT assay for cell proliferation, MCF-7; type: cell-based; set-up: key to Inhibitory rate / Inhibition rate: inhibition rate = 1 - mean A490 sample/mean A490 control (fraction); conditions: for Inhibition rate (16μM), 48 h, MCF-7: preliminary screening, MCF-7, 16 μM, mean±SD, unit not given
Procedure: as §1, §2

HeLa cells = test: MTT assay for cell proliferation, HeLa; type: cell-based; set-up: key to Inhibitory rate: inhibition rate = 1 - mean A490 sample/mean A490 control (fraction); conditions: Hela; for Inhibitory rate / ODtreated/ODcontrol: fraction, per experiment; for Inhibition rate (16μM), 48 h, Hela: preliminary screening, mean±SD, unit not given
Procedure: as §1, §2

KYSE-30 cells = test: MTT assay for cell proliferation, KYSE-30; type: cell-based; set-up: key to Inhibitory rate: inhibition rate = 1 - mean A490 sample/mean A490 control (fraction); conditions: for Inhibitory rate: KYSE-30, given as fraction; for Inhibition rate (16μM), 48 h, KYSE-30: preliminary screening, KYSE-30, 16 μM, mean±SD, unit not given
Procedure: as §1, §2

HepG2 cells [2] = conditions: cited from earlier work
[3] = test system: wild-type lung cancer cells (A549); set-up: method as in Mao L. F. et al., 2020; conditions: A549, stronger effect than icotinib; ref Mao L. F. et al., 2020; cited from earlier work
[4] = test system: mutant lung cancer cells (PC-9); set-up: method as in Mao L. F. et al., 2020; conditions: PC-9, stronger effect than icotinib; ref Mao L. F. et al., 2020; cited from earlier work
[5] = MCF-7, fraction, per experiment
[6] = given as fraction, second of three experiments
[7] = given as fraction, third of three experiments
[8] = KYSE-30, first of three experiments
[9] = KYSE-30, second of three experiments
[10] = KYSE-30, third of three experiments

For COc1c2n(cc(C(=O)Nc3cccc(-c4cn(-c5cccc(Br)c5)nn4)c3)c1=O)CC1OCC(C)N1C2=O (stereo not drawn) [KJ-18], the IC50 (HepG2 cells [1]) was 6.57 ± 1.45 µM, the Inhibitory rate (HepG2 cells [1]) was 0.7113 and 0.6793 and 0.7366 and the ODtreated/ODcontrol (HepG2 cells [1]) was 0.2887 and 0.3207 and 0.2634. The “Inhibition rate (16μM), 48 h, HepG2” value (HepG2 cells [1]) was 70.90±2.87, the Inhibitory rate (MCF-7 cells; [5]) was 0.5861 and the ODtreated/ODcontrol (MCF-7 cells; [5]) was 0.4139. For the same compound, the Inhibitory rate (MCF-7 cells; [6]) was 0.5487, the Inhibition rate (MCF-7 cells; [7]) was 0.6055 and the “Inhibition rate (16μM), 48 h, MCF-7” value (MCF-7 cells) was 58.01±2.89. For the same compound, the ODtreated/ODcontrol (MCF-7 cells; second of three experiments) was 0.4513, the ODtreated/ODcontrol (MCF-7 cells; third of three experiments) was 0.3945 and the Inhibitory rate (HeLa cells) was 0.6347 and 0.6562 and 0.6485. The ODtreated/ODcontrol (HeLa cells) was 0.3653 and 0.3438 and 0.3515, the “Inhibition rate (16μM), 48 h, Hela” value (HeLa cells) was 64.65±1.09 and the ODtreated/ODcontrol (KYSE-30 cells; [8]) was 0.385. For the same compound, the Inhibitory rate (KYSE-30 cells; first of three experiments) was 0.615, the Inhibitory rate (KYSE-30 cells; second of three experiments) was 0.5247 and the Inhibitory rate (KYSE-30 cells; third of three experiments) was 0.5847. For the same compound, the ODtreated/ODcontrol (KYSE-30 cells; [9]) was 0.4753, the ODtreated/ODcontrol (KYSE-30 cells; [10]) was 0.4153 and the “Inhibition rate (16μM), 48 h, KYSE-30” value (KYSE-30 cells) was 57.48±4.60.
In the case of COc1c2n(cc(C(=O)Nc3cccc(-c4cn(-c5ccccc5Cl)nn4)c3)c1=O)CC1OCC(C)N1C2=O (stereo not drawn) [KJ-19], the IC50 (HepG2 cells [1]) is reported as 7.5 ± 1.19 µM, the Inhibitory rate (HepG2 cells [1]) is reported as 0.7209 and 0.735 and 0.7422 and the ODtreated/ODcontrol (HepG2 cells [1]) is reported as 0.2791 and 0.265 and 0.2578. For the same compound, the “Inhibition rate (16μM), 48 h, HepG2” value (HepG2 cells [1]) was 73.27±1.09, the Inhibitory rate (MCF-7 cells; [5]) was 0.5839 and the ODtreated/ODcontrol (MCF-7 cells; [5]) was 0.4161. For the same compound, the Inhibitory rate (MCF-7 cells; [6]) was 0.531, the Inhibition rate (MCF-7 cells; [7]) was 0.6163 and the “Inhibition rate (16μM), 48 h, MCF-7” value (MCF-7 cells) was 57.71±4.31. For the same compound, the ODtreated/ODcontrol (MCF-7 cells; second of three experiments) was 0.469, the ODtreated/ODcontrol (MCF-7 cells; third of three experiments) was 0.3837 and the Inhibitory rate (HeLa cells) was 0.6257 and 0.6335 and 0.6346. For the same compound, the ODtreated/ODcontrol (HeLa cells) was 0.3743 and 0.3665 and 0.3654, the “Inhibition rate (16μM), 48 h, Hela” value (HeLa cells) was 63.13±0.49 and the ODtreated/ODcontrol (KYSE-30 cells; [8]) was 0.43. The Inhibitory rate (KYSE-30 cells; first of three experiments) was 0.57, the Inhibitory rate (KYSE-30 cells; second of three experiments) was 0.5211 and the Inhibitory rate (KYSE-30 cells; third of three experiments) was 0.5717. The ODtreated/ODcontrol (KYSE-30 cells; [9]) was 0.4789, the ODtreated/ODcontrol (KYSE-30 cells; [10]) was 0.4283 and the “Inhibition rate (16μM), 48 h, KYSE-30” value (KYSE-30 cells) was 55.43±2.87.
In the case of COc1ccc(CN(C(=O)Cn2cc(COc3ccc4c(C)cc(=O)oc4c3)nn2)c2cc(OC)c(OC)c(OC)c2)cc1 [compound 1], the IC50 (HepG2 cells [2]; ref Fu et al., 2019, read-out: IC50 for the inhibition of HepG2 cells) is given as 1.71 µM.
In the case of C[C@]12CC[C@@H]3c4ccc(O)cc4CC[C@H]3[C@@H]1CC[C@@]2(O)c1cn(CC(=O)c2ccc(Cl)cc2)nn1 [compound 2], the IC50 (HepG2 cells [2]; ref Queiroz et al., 2019, read-out: IC50 for HepG2 cells) is given as 17.8 µM.
In the case of Cc1c(C(=O)Nc2ccc(Oc3cccc4[nH]ccc34)c(F)c2)nnn1-c1ccc(F)cc1 [compound 3], the IC50 (HepG2 cells [2]; ref Wang L. et al., 2018, Chen et al., 2022b, read-out: IC50 for HepG2 cells) is given as 2.03 µM.
In the case of O=C(NCc1cn(-c2ccc(I)cc2)nn1)Nc1ccc(Cl)c(C(F)(F)F)c1 [compound 4], the IC50 (HepG2 cells [2]; ref Chen et al., 2022a, Oekchuae et al., 2022, read-out: IC50 for HepG2 cells) is listed as 5.57 µM.
For Clc1cccc(-n2cc(-c3cccc(Nc4ncnc5cc6c(cc45)OCCOCCOCCO6)c3)nn2)c1 [compound 5], the “Inhibitory effect on A549 cells” value [3] is listed as “excellent inhibitory effects” and the “Inhibitory effect on PC-9 cells” value [4] is listed as “excellent inhibitory effects”.
